Where two headings read alike, the source gives them in different places.
What was measured:
[1] = tested on: Sw620; assay: Cell viability, Sw620 colon cancer cells; type: cell-based, human; details: Homo sapiens, SW-620; Sw620, Colon; read-out: IC50 (−LogM) (converted)
[2] = tested on: H23; assay: Cell viability, H23 lung cancer cells; type: cell-based, human; details: Homo sapiens, NCI-H23; H23, Lung; read-out: IC50 (−LogM) (converted)
[3] = tested on: panel of 60 cancer cell lines; assay: NCI Developmental Therapeutics Program in-vitro testing, panel of 60 cancer cell lines (whole panel); type: cell-based
[4] = tested on: H460 cells; assay: cells; details: Homo sapiens
[5] = tested on: MOLT-4; assay: NCI in-vitro testing, MOLT-4 (Leukemia)
[6] = tested on: CCRF-CEM; assay: NCI in-vitro testing, CCRF-CEM (Leukemia)
[7] = tested on: KM12; assay: NCI in-vitro testing, KM12 (Colon Cancer)
[8] = tested on: LOX IMVI; assay: NCI in-vitro testing, LOX IMVI (Melanoma)
[9] = tested on: A498; assay: NCI in-vitro testing, A498 (Renal Cancer)
[10] = tested on: RPMI-8226; assay: NCI in-vitro testing, RPMI-8226 (Leukemia)
[11] = tested on: 786-0; assay: NCI in-vitro testing, 786-0 (Renal Cancer)
[12] = tested on: HCT-15; assay: NCI in-vitro testing, HCT-15 (Colon Cancer)
[13] = tested on: HCT-116; assay: NCI in-vitro testing, HCT-116 (Colon Cancer)
[14] = tested on: HCC-2998; assay: NCI in-vitro testing, HCC-2998 (Colon Cancer)
[15] = tested on: MDA-MB-435; assay: NCI in-vitro testing, MDA-MB-435 (Breast Cancer)
[16] = tested on: NCI/ADR-RES; assay: NCI in-vitro testing, NCI/ADR-RES (Breast Cancer)
[17] = tested on: NCI-H522; assay: NCI in-vitro testing, NCI-H522 (Non-Small Cell Lung Cancer)
[18] = Homo sapiens, read-out: Log10 GI50 (converted)

## OCc1cn(Cc2ccc(Cl)cc2)c2ccccc12 [Oncrasin K060, 1H-Indole-3-methanol, 1-[(4-chlorophenyl)methyl]-]
[1]
  IC50: 5.01 µM
[2]
  IC50: 15.8 µM
[3]; leukemia, non small lung, colon, melanoma, ovarian, renal, breast
  anticancer spectrum in NCI panel: active in a number of cancer cell lines
[3]; of 54 cancer cell lines tested, read-out: medium 50% growth inhibition (GI50) concentration
  GI50: 1.12 µM
[4]; NCI-H460, read-out: IC50 (−LogM), H460, Lung (converted)
  IC50: 0.0158 µM
[4]; NCI-H460, read-out: IC50 in H460 cells, Table 1
  IC50: 0.0158 µM
[5]; Homo sapiens, MOLT-4
  GI50: 17.7 µM
[5]; Homo sapiens, MOLT-4, read-out: LC50
  CC50: 82.8 µM
[5]; Homo sapiens, MOLT-4, read-out: Log10 GI50 (converted)
  GI50: 17.8 µM
[5]; MOLT-4
  TGI: 3.82E−5 Molar
[5]; MOLT-4, Log10 Concentration −4.0 Molar
  Percent Growth: −62%
[5]; MOLT-4, Log10 Concentration −5.0 Molar
  Percent Growth: 87%
[5]; MOLT-4, Log10 Concentration −6.0 Molar
  Percent Growth: 109%
[5]; MOLT-4, Log10 Concentration −7.0 Molar
  Percent Growth: 102%
[5]; MOLT-4, Log10 Concentration −8.0 Molar
  Percent Growth: 114%
[6]
  TGI: 4.31E−6 Molar
[6]; Homo sapiens
  GI50: 1.74 µM
[6]; Homo sapiens, read-out: LC50
  CC50: 14.8 µM
[6]; [18]
  GI50: 1.74 µM
[6]; Log10 Concentration −4.0 Molar
  Percent Growth: −67%
[6]; Log10 Concentration −5.0 Molar
  Percent Growth: −47%
[6]; Log10 Concentration −6.0 Molar
  Percent Growth: 81%
[6]; Log10 Concentration −7.0 Molar
  Percent Growth: 97%
[6]; Log10 Concentration −8.0 Molar
  Percent Growth: 100%
[7]; Homo sapiens, KM12
  GI50: 18.3 µM
[7]; Homo sapiens, KM12, read-out: LC50
  CC50: 9.44 µM
[7]; Homo sapiens, KM12, read-out: Log10 GI50 (converted)
  GI50: 18.2 µM
[7]; KM12
  TGI: 1.15E−6 Molar
[7]; KM12, Log10 Concentration −4.0 Molar
  Percent Growth: −64%
[7]; KM12, Log10 Concentration −5.0 Molar
  Percent Growth: 87%
[7]; KM12, Log10 Concentration −6.0 Molar
  Percent Growth: 102%
[7]; KM12, Log10 Concentration −7.0 Molar
  Percent Growth: 113%
[7]; KM12, Log10 Concentration −8.0 Molar
  Percent Growth: 108%
[8]
  TGI: 1.58E−6 Molar
[8]; Homo sapiens
  GI50: 4.48 µM
[8]; Homo sapiens, read-out: LC50
  CC50: 47.2 µM
[8]; [18]
  GI50: 4.47 µM
[8]; Log10 Concentration −4.0 Molar
  Percent Growth: −86%
[8]; Log10 Concentration −5.0 Molar
  Percent Growth: 26%
[8]; Log10 Concentration −6.0 Molar
  Percent Growth: 96%
[8]; Log10 Concentration −7.0 Molar
  Percent Growth: 96%
[8]; Log10 Concentration −8.0 Molar
  Percent Growth: 102%
[9]; A498
  TGI: 3.33E−8 Molar
[9]; A498, Log10 Concentration −4.0 Molar
  Percent Growth: −94%
[9]; A498, Log10 Concentration −5.0 Molar
  Percent Growth: −95%
[9]; A498, Log10 Concentration −6.0 Molar
  Percent Growth: −87%
[9]; A498, Log10 Concentration −7.0 Molar
  Percent Growth: −56%
[9]; A498, Log10 Concentration −8.0 Molar
  Percent Growth: 61%
[9]; Homo sapiens, A498
  GI50: 0.0124 µM
[9]; Homo sapiens, A498, read-out: LC50
  CC50: 0.089 µM
[9]; Homo sapiens, A498, read-out: Log10 GI50 (converted)
  GI50: 0.0123 µM
[10]; Homo sapiens, RPMI-8226
  GI50: 0.372 µM
[10]; Homo sapiens, RPMI-8226, read-out: LC50
  CC50: > 100 µM
[10]; Homo sapiens, RPMI-8226, read-out: Log10 GI50 (converted)
  GI50: 0.372 µM
[10]; RPMI-8226
  TGI: 3.19E−6 Molar
[10]; RPMI-8226, Log10 Concentration −4.0 Molar
  Percent Growth: −35%
[10]; RPMI-8226, Log10 Concentration −5.0 Molar
  Percent Growth: −23%
[10]; RPMI-8226, Log10 Concentration −6.0 Molar
  Percent Growth: 24%
[10]; RPMI-8226, Log10 Concentration −7.0 Molar
  Percent Growth: 85%
[10]; RPMI-8226, Log10 Concentration −8.0 Molar
  Percent Growth: 119%
[11]; 786-0
  TGI: 2.19E−5 Molar
[11]; 786-0, Log10 Concentration −4.0 (Molar)
  Percent Growth: −52%
[11]; 786-0, Log10 Concentration −5.0 (Molar)
  Percent Growth: 27%
[11]; 786-0, Log10 Concentration −6.0 (Molar)
  Percent Growth: 76%
[11]; 786-0, Log10 Concentration −7.0 (Molar)
  Percent Growth: 88%
[11]; 786-0, Log10 Concentration −8.0 (Molar)
  Percent Growth: 99%
[11]; Homo sapiens, 786-0
  GI50: 34 µM
[11]; Homo sapiens, 786-0, read-out: LC50
  CC50: 94.7 µM
[11]; Homo sapiens, 786-0, read-out: Log10 GI50 (converted)
  GI50: 3.39 µM
[12]; HCT-15
  TGI: 2.58E−5 Molar
[12]; HCT-15, Log10 Concentration −4.0 Molar
  Percent Growth: −31%
[12]; HCT-15, Log10 Concentration −5.0 Molar
  Percent Growth: 21%
[12]; HCT-15, Log10 Concentration −6.0 Molar
  Percent Growth: 69%
[12]; HCT-15, Log10 Concentration −7.0 Molar
  Percent Growth: 90%
[12]; HCT-15, Log10 Concentration −8.0 Molar
  Percent Growth: 99%
[12]; Homo sapiens, HCT-15
  GI50: 2.52 µM
[12]; Homo sapiens, HCT-15, read-out: LC50
  CC50: > 100 µM
[12]; Homo sapiens, HCT-15, read-out: Log10 GI50 (converted)
  GI50: 2.51 µM
[13]; HCT-116
  TGI: 1.06E−5 Molar
[13]; HCT-116, Log10 Concentration −4.0 Molar
  Percent Growth: −64%
[13]; HCT-116, Log10 Concentration −5.0 Molar
  Percent Growth: 2%
[13]; HCT-116, Log10 Concentration −6.0 Molar
  Percent Growth: 10%
[13]; HCT-116, Log10 Concentration −7.0 Molar
  Percent Growth: 30%
[13]; HCT-116, Log10 Concentration −8.0 Molar
  Percent Growth: 68%
[13]; Homo sapiens, HCT-116
  GI50: 0.0204 µM
[13]; Homo sapiens, HCT-116, read-out: LC50
  CC50: 6.06 µM
[13]; Homo sapiens, HCT-116, read-out: Log10 GI50 (converted)
  GI50: 0.0295 µM
[14]; HCC-2998
  TGI: 2.04E−5 Molar
[14]; HCC-2998, Log10 Concentration −4.0 Molar
  Percent Growth: −97%
[14]; HCC-2998, Log10 Concentration −5.0 Molar
  Percent Growth: 43%
[14]; HCC-2998, Log10 Concentration −6.0 Molar
  Percent Growth: 62%
[14]; HCC-2998, Log10 Concentration −7.0 Molar
  Percent Growth: 86%
[14]; HCC-2998, Log10 Concentration −8.0 Molar
  Percent Growth: 95%
[14]; Homo sapiens, HCC 2998
  GI50: 4.33 µM
[14]; Homo sapiens, HCC 2998, read-out: LC50
  CC50: 45.2 µM
[14]; Homo sapiens, HCC 2998, read-out: Log10 GI50 (converted)
  GI50: 4.37 µM
[15]; Homo sapiens, MDA-MB-435
  GI50: 19.3 µM
[15]; Homo sapiens, MDA-MB-435, read-out: LC50
  CC50: > 100 µM
[15]; Homo sapiens, MDA-MB-435, read-out: Log10 GI50 (converted)
  GI50: 19.1 µM
[15]; MDA-MB-435
  TGI: 5.47E−5 Molar
[15]; MDA-MB-435, Log10 Concentration −4.0 Molar
  Percent Growth: −29%
[15]; MDA-MB-435, Log10 Concentration −5.0 Molar
  Percent Growth: 81%
[15]; MDA-MB-435, Log10 Concentration −6.0 Molar
  Percent Growth: 96%
[15]; MDA-MB-435, Log10 Concentration −7.0 Molar
  Percent Growth: 100%
[15]; MDA-MB-435, Log10 Concentration −8.0 Molar
  Percent Growth: 102%
[16]
  TGI: 3.32E−5 Molar
[16]; Homo sapiens
  GI50: 9.22 µM
[16]; Homo sapiens, read-out: LC50
  CC50: > 100 µM
[16]; [18]
  GI50: 9.12 µM
[16]; Log10 Concentration −4.0 Molar
  Percent Growth: −45%
[16]; Log10 Concentration −5.0 Molar
  Percent Growth: 49%
[16]; Log10 Concentration −6.0 Molar
  Percent Growth: 86%
[16]; Log10 Concentration −7.0 Molar
  Percent Growth: 94%
[16]; Log10 Concentration −8.0 Molar
  Percent Growth: 103%
[17]
  TGI: 1.24E−5 Molar
[17]; Homo sapiens, NCI-H522
  GI50: 2.41 µM
[17]; Homo sapiens, NCI-H522, read-out: LC50
  CC50: 51 µM
[17]; Homo sapiens, NCI-H522, read-out: Log10 GI50 (converted)
  GI50: 2.4 µM
[17]; Log10 Concentration −4.0 Molar
  Percent Growth: −74%
[17]; Log10 Concentration −5.0 Molar
  Percent Growth: 7%
[17]; Log10 Concentration −6.0 Molar
  Percent Growth: 76%
[17]; Log10 Concentration −7.0 Molar
  Percent Growth: 82%
[17]; Log10 Concentration −8.0 Molar
  Percent Growth: 91%
